Patent US4742045A, “Glycopeptide antibiotics” (SmithKline Beckman Corporation, priority 1986, dated 1988)
≈ marks a conversion by molar mass, not a printed value. Where two headings read alike, the source gives them in different places.

Assays:
[1] = test system: Staphylococcus epidermidis; experiment: standard microtiter assay, minimum inhibitory concentration; assay type: cell-based
Text: (§1) Representative results of standard microtiter assays are reported in Tables 1, 2 and 3 which follow, as the minimum inhibitory concentration of antibiotic (μg/ml).
(§2) In Table 1, test organisms 1-13 were different strains of Staphylococcus aureus, and 14-16 were different strains of Staphylococcus epidermidis. In Table 2, test organisms 1-5 were different strains of S. aureus; 6, 8, 12 and 14 were different strains of S. epidermidis; 7 was a Staphylococcus haemolyticus; 9 and 10 were different strains of Streptococcus faecalis; 11 was a Streptococcus pyogenes; and 13 was a Staphylococcus saprophyticus. In Table 3, test organisms 1-3 were different strains of S. aureus; 4 and 6 were different strains of S. epidermidis; 5 was a S. haemolyticus and 7 and 8 were different strains of Streptococcus faecalis. Except where individual components are indicated, the CWI-785 antibiotic employed was the CWI-785 complex; in some cases, HCl salts of the CWI-785 antibiotic were employed.
(§3) In Table 5 are shown data from standard microtiter assays carried out in a presence of no serum, 50% human serum (hum.) and 50% mouse serum (mse.). The test organisms were 1: S. aureus; 2,4 and 5: different strains of S. epidermidis; 3: S. haemolyticus; 6: S. saprophyticus; 7 and 8: different strains of S. faecalis.

[2] = test system: Staphylococcus haemolyticus; experiment: as above; assay type: cell-based; conditions: Table 3 test organism 5, S. haemolyticus
Text: as §1, §2, §3

[3] = test system: Staphylococcus aureus; experiment: as above; assay type: cell-based; conditions: for MIC: Staphylococcus aureus, read-out: minimum inhibitory concentration
Text: as §1, §2
(§4) The number of strains tested is shown in parentheses below each organism. The average MIC is reported in μg/ml.
as §3

[4] = test system: Streptococcus faecalis; experiment: as above; assay type: cell-based
Text: as §1, §2, §4, §3

[5] = test system: STAPH. AUREUS HH 127; experiment: prophylactic activity, dosing preinfection; assay type: in vivo, mice; conditions: for survival printed in parentheses under ED 50: Table 8, printed with ED 50 <0.156
[6] = test system: buffered rumen fluid from a donor steer; experiment: 23 hour flask rumen fermentation, volatile fatty acid production
Experimental: The effects of each additive on 23 hour flask rumen fermentation were assayed. Each flask contained 10 ml of rumen fluid and 10 ml of nutrient broth comprising (mg/flask): casein hydrolysate: 20, maltose: 100, urea: 15, solka floc (cellulose): 400 and starch: 100. The flasks were incubated on a shaker at 39° C.
In Table A, ACE is acetate, PRO is propionate, IBU is isobutyrate, BUT is butyrate, IVA is isovalerate, VAL is valerate, TOTAL is total VFA and %PR is the amount of propionate relative to TOTAL. Amounts of each VFA are reported as percentages of control ruminant fluid, that is, without additive.

[7] = test system: cecum fluid from a swine; experiment: swine in vitro model, cecum fluid incubation
Experimental: The swine in vitro model was carried by incubating 1.5 ml of cecum fluid, from a swine fed normal rations, mixed with 1.5 ml of a nutrient broth (3 mg casein hydrolysate, 30 mg maltose, 1.25 mg urea, 0.5 mg lysine, and 30 mg cellobiose) and with up to 166.67 parts per million of a selected growth promotant at 39° C., with oscillation, for about 4-5 hours. Results, percentage of control, are reported in the following table in which all abbreviations are as above and LLAC means L-lactate, ETOH means ethanol and GLU means glucose.

[8] = Table 3 test organism 4, S. epidermidis strain
[9] = Table 3 test organism 6, S. epidermidis strain
[10] = Table 3 test organism 1, S. aureus strain
[11] = Table 3 test organism 2, S. aureus strain
[12] = Table 3 test organism 3, S. aureus strain
[13] = Table 3 test organism 7, Streptococcus faecalis strain
[14] = Table 3 test organism 8, Streptococcus faecalis strain
[15] = Table 7, vs Staph. aureus HH 127 (S.C.), read-out: ED50
[16] = Table 7: 40 mg/kg, 4 hr preinfection, S.C.
[17] = Table 8, vs Staph. aureus HH 127 (I.V.)
[18] = Table 8: 40 mg/kg (I.V.), 6 hr preinfection

## CN[C@H](C(=O)NC1C(=O)NC(CCSC)C(=O)NC2C(=O)NC3C(=O)NC(C(=O)NC(C(=O)O)c4cc(O)cc(O)c4-c4cc3ccc4O)C(O)c3ccc(c(Cl)c3)Oc3cc2cc(c3O)Oc2ccc(cc2)C1O)c1ccc(O)cc1 (some centres unmarked) [CWI-785B"-aglycone]
[1]; [8]
  minimum inhibitory concentration: 25.0 µg/mL (≈ 21.5 µM)
[1]; [9]
  minimum inhibitory concentration: 25.0 µg/mL (≈ 21.5 µM)
[2]
  minimum inhibitory concentration: 50.0 µg/mL (≈ 43 µM)
[3]; [10]
  minimum inhibitory concentration: 25.0 µg/mL (≈ 21.5 µM)
[3]; [11]
  minimum inhibitory concentration: 25.0 µg/mL (≈ 21.5 µM)
[3]; [12]
  minimum inhibitory concentration: 25.0 µg/mL (≈ 21.5 µM)
[4]; [13]
  minimum inhibitory concentration: 3.1 µg/mL (≈ 2.67 µM)
[4]; [14]
  minimum inhibitory concentration: 1.6 µg/mL (≈ 1.38 µM)

## CN[C@@H](C(=O)NC1C(=O)NC(CCSC)C(=O)NC2C(=O)NC3C(=O)NC(C(=O)NC(C(=O)O)c4cc(O)cc(O)c4-c4cc3ccc4O)C(O)c3ccc(c(Cl)c3)Oc3cc2cc(c3O)Oc2ccc(cc2)C1O)c1ccc(O)cc1 (some centres unmarked) [CWI-785B'-aglycone]
[1]; [8]
  minimum inhibitory concentration: 3.1 µg/mL (≈ 2.67 µM)
[1]; [9]
  minimum inhibitory concentration: 6.3 µg/mL (≈ 5.42 µM)
[2]
  minimum inhibitory concentration: 6.3 µg/mL (≈ 5.42 µM)
[3]; [10]
  minimum inhibitory concentration: 3.1 µg/mL (≈ 2.67 µM)
[3]; [11]
  minimum inhibitory concentration: 3.1 µg/mL (≈ 2.67 µM)
[3]; [12]
  minimum inhibitory concentration: 3.1 µg/mL (≈ 2.67 µM)
[4]; [13]
  minimum inhibitory concentration: 0.8 µg/mL (≈ 0.688 µM)
[4]; [14]
  minimum inhibitory concentration: 0.8 µg/mL (≈ 0.688 µM)

## CNC(C(=O)NC1C(=O)NC(CC[S+](C)[O-])C(=O)NC2C(=O)NC3C(=O)NC(C(=O)NC(C(=O)O)c4cc(O)cc(O)c4-c4cc3ccc4O)C(OC3CC(N)C(O)C(C)O3)c3ccc(c(Cl)c3)Oc3cc2cc(c3O)Oc2ccc(cc2)C1O)c1ccc(O)cc1.Cl (centres unmarked) [HPB3 hydrochloride]
[5]; [15]
  ED50: 1.25 mg/kg
[5]; [16]
  PERCENT SURVIVAL: 100%
[5]
  survival printed in parentheses under ED 50: 90%
[5]; [17]
  ED50: < 0.156 mg/kg
[5]; [18]
  PERCENT SURVIVAL: 60%

## CNC(C(=O)NC1C(=O)NC(CCSC)C(=O)NC2C(=O)NC3C(=O)NC(C(=O)NC(C(=O)O)c4cc(O)cc(O)c4-c4cc3ccc4O)C(OC3CC(N)C(O)C(C)O3)c3ccc(c(Cl)c3)Oc3cc2cc(c3O)Oc2ccc(cc2)C1O)c1ccc(O)cc1.Cl (centres unmarked) [HPB4 hydrochloride]
[5]; [15]
  ED50: 1.25 mg/kg
[5]; [16]
  PERCENT SURVIVAL: 100%
[5]
  survival printed in parentheses under ED 50: 100%
[5]; [17]
  ED50: < 0.156 mg/kg
[5]; [18]
  PERCENT SURVIVAL: 100%

## COc1cccc(OC)c1C(=O)N[C@@H]1C(=O)N2[C@@H]1SC(C)(C)[C@@H]2C(=O)O [Methicillin]
[1]; Staphylococcus epidermidis, Table 1 test organism 14, S. epidermidis strain, read-out: minimum inhibitory concentration
  MIC: 1.6 µg/mL (≈ 4.21 µM)
[1]; Table 1 test organism 15, S. epidermidis strain
  minimum inhibitory concentration: 1.6 µg/mL (≈ 4.21 µM)
[1]; Table 1 test organism 16, S. epidermidis strain
  minimum inhibitory concentration: 1.6 µg/mL (≈ 4.21 µM)
[3]; Table 1 test organism 1, S. aureus strain
  MIC: 3.1 µg/mL (≈ 8.15 µM)
[3]; Table 1 test organism 2, S. aureus strain
  MIC: 12.5 µg/mL (≈ 32.9 µM)
[3]; Table 1 test organism 3, S. aureus strain
  MIC: 6.3 µg/mL (≈ 16.6 µM)
[3]; Table 1 test organism 4, S. aureus strain
  MIC: 12.5 µg/mL (≈ 32.9 µM)
[3]; Table 1 test organism 5, S. aureus strain
  MIC: 12.5 µg/mL (≈ 32.9 µM)
[3]; Table 1 test organism 6, S. aureus strain
  MIC: 12.5 µg/mL (≈ 32.9 µM)
[3]; Table 1 test organism 7, S. aureus strain
  MIC: > 50 µg/mL
[3]; Table 1 test organism 8, S. aureus strain
  MIC: > 50 µg/mL
[3]; Table 1 test organism 9, S. aureus strain
  MIC: > 50 µg/mL
[3]; Table 1 test organism 10, S. aureus strain
  MIC: > 50 µg/mL
[3]; Table 1 test organism 11, S. aureus strain
  MIC: > 50 µg/mL
[3]; Table 1 test organism 12, S. aureus strain
  MIC: 50 µg/mL (≈ 131 µM)
[3]; Table 1 test organism 13, S. aureus strain
  MIC: > 50 µg/mL

## CC[C@@]1([C@@H]2O[C@@H]([C@H]3O[C@@](O)(CO)[C@H](C)C[C@@H]3C)C[C@@H]2C)CC[C@H]([C@]2(C)CC[C@]3(C[C@H](O)[C@@H](C)[C@@H]([C@@H](C)[C@@H](OC)[C@H](C)C(=O)O)O3)O2)O1 [Monensin, monensin]
[6]; 0.50 PPM
  ACE (acetate): 108 percentages of control
  BUT (butyrate): 100 percentages of control
  IBU (isobutyrate): 101 percentages of control
  IVA (isovalerate): 246 percentages of control
  PRO (propionate): 96 percentages of control
  TOTAL (total VFA): 105 percentages of control
  VAL (valerate): 114 percentages of control
[6]; 5.00 PPM
  ACE (acetate): 96 percentages of control
  BUT (butyrate): 60 percentages of control
  IBU (isobutyrate): 77 percentages of control
  IVA (isovalerate): 106 percentages of control
  PRO (propionate): 174 percentages of control
  TOTAL (total VFA): 103 percentages of control
  VAL (valerate): 41 percentages of control
[6]; 50.00 PPM
  ACE (acetate): 91 percentages of control
  BUT (butyrate): 53 percentages of control
  IBU (isobutyrate): 104 percentages of control
  IVA (isovalerate): 134 percentages of control
  PRO (propionate): 211 percentages of control
  VAL (valerate): 38 percentages of control

## Virginiamycin
[7]; 1.67 PPM
  % PR (propionate relative to TOTAL): 99% OF CONTROL
  ACE (acetate): 138% OF CONTROL
  BUT (butyrate): 178% OF CONTROL
  ETOH (ethanol): 309% OF CONTROL
  GLU (glucose): 152% OF CONTROL
  IBU (isobutyrate): 0% OF CONTROL
  IVA (isovalerate): 251% OF CONTROL
  LLAC (L-lactate): 17% OF CONTROL
  PRO (propionate): 147% OF CONTROL
  TOTAL (total VFA): 148% OF CONTROL
  VAL (valerate): 262% OF CONTROL
[7]; 16.67 PPM
  % PR (propionate relative to TOTAL): 81% OF CONTROL
  ACE (acetate): 58% OF CONTROL
  BUT (butyrate): 95% OF CONTROL
  ETOH (ethanol): 273% OF CONTROL
  GLU (glucose): 151% OF CONTROL
  IBU (isobutyrate): 0% OF CONTROL
  IVA (isovalerate): 40% OF CONTROL
  LLAC (L-lactate): 32% OF CONTROL
  PRO (propionate): 42% OF CONTROL
  TOTAL (total VFA): 52% OF CONTROL
  VAL (valerate): 113% OF CONTROL
[7]; 166.67 PPM
  % PR (propionate relative to TOTAL): 59% OF CONTROL
  ACE (acetate): 45% OF CONTROL
  BUT (butyrate): 83% OF CONTROL
  ETOH (ethanol): 0% OF CONTROL
  GLU (glucose): 151% OF CONTROL
  IBU (isobutyrate): 0% OF CONTROL
  IVA (isovalerate): 56% OF CONTROL
  LLAC (L-lactate): 39% OF CONTROL
  PRO (propionate): 20% OF CONTROL
  TOTAL (total VFA): 34% OF CONTROL
  VAL (valerate): 84% OF CONTROL
